The target in one assay is T1, DrPOMK (Danio rerio, UniProt Q5U3W1).
T1 construct: gene pomk; lumenal kinase domain, residues 49-347, secreted from Hi5 insect cells (baculovirus); N-terminal 6xHis-MBP removed by TEV for crystallization
In words: 1H NMR titration, Man H1 peak intensity. In kind it is binding. Particulars: read-out: dissociation constant.

The target of a further assay is T2, CoPOMK (Capsaspora owczarzaki, UniProt A0A0D2WXW5).
T2 construct: gene CAOG_008172; residues 112-610, 6xHis-MBP fusion (psMBP2), secreted from Hi5 insect cells (baculovirus)
T2 sequence (A0A0D2WXW5 112-610): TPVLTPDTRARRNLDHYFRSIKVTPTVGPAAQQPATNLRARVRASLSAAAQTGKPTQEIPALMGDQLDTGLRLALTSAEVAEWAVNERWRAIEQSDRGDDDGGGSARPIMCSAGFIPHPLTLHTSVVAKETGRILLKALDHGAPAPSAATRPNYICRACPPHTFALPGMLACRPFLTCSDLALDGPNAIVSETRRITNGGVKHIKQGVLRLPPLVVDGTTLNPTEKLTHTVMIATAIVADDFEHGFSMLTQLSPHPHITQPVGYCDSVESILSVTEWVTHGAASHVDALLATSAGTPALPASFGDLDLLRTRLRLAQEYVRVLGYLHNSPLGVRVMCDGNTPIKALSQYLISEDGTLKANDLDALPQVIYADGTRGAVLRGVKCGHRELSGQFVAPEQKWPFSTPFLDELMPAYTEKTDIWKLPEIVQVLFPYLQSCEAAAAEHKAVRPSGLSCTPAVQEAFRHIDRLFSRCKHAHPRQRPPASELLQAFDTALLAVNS
Put plainly: radiometric kinase assay, […] incorporation, C18 cartridge. Format: biochemical. Particulars: 20 μM GGM-MU, 100 μM ATP, 10 mM MnCl2, 50 mM HEPES pH 7.5, 20 °C, 30 min.

Another assay deals with T3, HsPOMK (Homo sapiens, UniProt Q9H5K3).
T3 construct: gene POMK; lumenal kinase domain, residues 49-350, 6xHis-MBP fusion kept, secreted from Hi5 insect cells (baculovirus)
The assay is described as above. Particulars: 20 μM GGM-MU, 100 μM ATP, 10 mM MnCl2, 50 mM HEPES pH 7.5, 20 °C, 30 min. In kind it is biochemical.

The values below come from paper PMC5142810, “Structure of protein O-mannose kinase reveals a unique active site architecture” (eLife, 2016).

T3 sequence (Q9H5K3 49-350): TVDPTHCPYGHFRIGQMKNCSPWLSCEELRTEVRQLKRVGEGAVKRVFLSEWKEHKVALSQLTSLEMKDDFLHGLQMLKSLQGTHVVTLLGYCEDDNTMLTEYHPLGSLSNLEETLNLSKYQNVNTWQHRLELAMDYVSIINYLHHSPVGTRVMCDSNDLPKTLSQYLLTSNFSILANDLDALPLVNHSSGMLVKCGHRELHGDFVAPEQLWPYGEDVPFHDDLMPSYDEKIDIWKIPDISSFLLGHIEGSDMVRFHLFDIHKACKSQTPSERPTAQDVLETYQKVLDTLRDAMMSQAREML
T1 sequence (Q5U3W1 49-347): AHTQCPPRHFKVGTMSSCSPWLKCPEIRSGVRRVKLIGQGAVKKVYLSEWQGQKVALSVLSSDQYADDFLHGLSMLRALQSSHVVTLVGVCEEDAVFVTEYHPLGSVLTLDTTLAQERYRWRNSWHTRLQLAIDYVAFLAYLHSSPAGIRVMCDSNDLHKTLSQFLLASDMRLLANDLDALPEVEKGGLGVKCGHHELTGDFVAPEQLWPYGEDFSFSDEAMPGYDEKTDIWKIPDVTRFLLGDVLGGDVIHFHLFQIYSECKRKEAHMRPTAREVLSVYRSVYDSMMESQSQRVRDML

Regarding `CC(=O)N[C@H]1[C@H](O[C@H]2[C@H](O)[C@@H](CO)O[C@@H](O[C@H]3[C@H](O)[C@H](O)[C@@H](Oc4ccc5c(C)cc(=O)oc5c4)O[C@@H]3CO)[C@@H]2NC(C)=O)O[C@H](CO)[C@H](O)[C@@H]1O` [GGM-MU], the Kd on DrPOMK came to 30.2 µM. Also, the “radiometric kinase assay, 32P incorporation, C18 cartridge” value on CoPOMK and on HsPOMK was “POMK homologues phosphorylates GGM-MU” in each case.
